This passage reports EC50 results from ChEMBL document CHEMBL4609985, “Superior inhibition of influenza virus hemagglutinin-mediated fusion by indole-substituted spirothiazolidinones” (Bioorg Med Chem, 2020).

Experiment [1] is described as follows: Inhibition of Influenza A virus H3N2 A/X-31 hemagglutinin 3 E572K mutant expressed in HeLa cells assessed as polykaryon formation preincubated for 15 mins and further incubated for 15 mins with acidic buffer containing compounds at pH 5.2 by giemsa staining based microscopic analysis. The format is cell-based, Influenza A virus (A/X-31(H3N2)).
The nature of experiment [2]: Inhibition of Influenza A virus H3N2 A/X-31 hemagglutinin 3 D1122N expressed in HeLa cells assessed as polykaryon formation preincubated for 15 mins and further incubated for 15 mins with acidic buffer containing compounds at pH 5.6 by giemsa staining based microscopic analysis. The format is cell-based, Influenza A virus (A/X-31(H3N2)).

For the compound `Cc1nc2sccn2c1C(=O)NN1C(=O)C(C)SC12CCC(C)CC2` (centres undefined), the results for the half-maximal effective concentration (EC50) in experiment [1] and in experiment [2] were 9 µM and greater than 25 µM, respectively.

For the compound `Cc1c(C(=O)NN2C(=O)C(C)SC23CCC(C)CC3)[nH]c2ccc(Cl)cc12` (centres undefined), the results for the EC50 in experiment [1] and in experiment [2] were no less than 13 µM and greater than 25 µM, respectively.

Turning to `Cc1c(C(=O)NN2C(=O)C(C)SC23CCCC(C)C3)[nH]c2ccc(Cl)cc12` (centres undefined), the EC50 in experiment [1] and in experiment [2] was greater than 25 µM in each case.

Take `CCC1CCC2(CC1)SC(C)C(=O)N2NC(=O)c1[nH]c2ccc(Cl)cc2c1C` (centres undefined): the EC50 in experiment [1] is greater than 25 µM; in experiment [2] it was no less than 21 µM.

As to `Cc1c(C(=O)NN2C(=O)C(C)SC23CCCCC3)[nH]c2ccc(Cl)cc12` (centres undefined), the EC50 in experiment [1] and in experiment [2] was greater than 25 µM each time.

Consider `CC(C)(C)c1cc(O)ccc1O` [E319], for which the values for the EC50 in experiment [1] and in experiment [2] were 12 µM and greater than 400 µM, respectively.

Take `CCOC(=O)c1c(CSc2ccccc2)n(C)c2cc(Br)c(O)c(CN(C)C)c12` [UMIFENOVIR]: the half-maximal effective concentration (EC50) in experiment [1] and in experiment [2] was greater than 200 µM each time.
